Assay in all cases: Post-emergence efficacy, glasshouse pot test
Common to all, as to assay type: in vivo
Holding throughout (settings): evaluated after 13 days

In assay [1] the test system is Lolium perenne (LOLPE). As to the method: (§1) B1 Post-emergence Efficacy Seeds of a variety of test species are sown in standard soil in pots:— Solanum nigrum (SOLNI), Amaranthus retoflexus (AMARE), Setaria faberi (SETFA), Echinochloa crus-galli (ECHCG), Ipomoea hederacea (IPOHE), Lolium perenne (LOLPE). After 8 days cultivation (post-emergence) under controlled conditions in a glasshouse (at 24/16° C., day/night; 14 hours light; 65% humidity), the plants are sprayed with an aqueous spray solution derived from the formulation of the technical active ingredient in acetone/water (50:50) solution containing 0.5% Tween 20 (polyoxyethylene sorbitan monolaurate, CAS RN 9005-64-5). Compounds are applied at 1000 g/ha and 250 g/ha. The test plants are then grown in a glasshouse under controlled conditions in a glasshouse (at 24/16° C., day/night; 14 hours light; 65% humidity) and watered twice daily. After 13 days, the test is evaluated for the percentage damage caused to the plant. The biological activities are shown below in Table B1, on a five point scale (5=80-100%; 4=60-79%; 3=40-59%; 2=20-39%; 1=0-19%).

Assay [2] concerns Ipomoea hederacea (IPOHE). As for the experimental part: as §1
The subject of assay [3] is Setaria faberi (SETFA). As to the method: as §1
In assay [4] the test system is Amaranthus retoflexus (AMARE). As to the method:
as §1

Assay [5] deals with Solanum nigrum (SOLNI). As to the method: as §1
For assay [6], the system named is Echinochloa crus-galli (ECHCG). As to the method: as §1

Turning to `CC1(C)C(=O)C(c2c(F)ccc(Cl)c2OCc2ccccc2)C(=O)c2nccnc21` (stereo not drawn) [Compound 1.02], the “percentage damage caused to the plant, LOLPE (five point scale)” value in assay [1] (250 g/Ha) and in assay [1] (1000 g/Ha) was 5 (5=80-100%) in each case. Further, the “percentage damage caused to the plant, IPOHE (five point scale)” value in assay [2] (250 g/Ha) and in assay [2] (1000 g/Ha) was 5 (5=80-100%) each time. Further, the “percentage damage caused to the plant, SETFA (five point scale)” value in assay [3] (250 g/Ha) and in assay [3] (1000 g/Ha) was 5 (5=80-100%) each time. Besides, the “percentage damage caused to the plant, AMARE (five point scale)” value in assay [4] (250 g/Ha) and in assay [4] (1000 g/Ha) was 5 (5=80-100%) throughout. The “percentage damage caused to the plant, SOLNI (five point scale)” value in assay [5] (250 g/Ha) and in assay [5] (1000 g/Ha) was 5 (5=80-100%) each time. Moreover, the “percentage damage caused to the plant, ECHCG (five point scale)” value in assay [6] (250 g/Ha) and in assay [6] (1000 g/Ha) was 5 (5=80-100%) throughout.

For `CC1(C)c2nccnc2C(=O)C(c2c(F)ccc(Cl)c2OCc2ccccc2)S1(=O)=O` (stereo not drawn) [Compound 1.08, 7-(2-benzyloxy-3-chloro-6-fluoro-phenyl)-5,5-dimethyl-6,6-dioxo-thiopyrano[3,4-b]pyrazin-8-ol], the “percentage damage caused to the plant, LOLPE (five point scale)” value in assay [1] (250 g/Ha) and in assay [1] (1000 g/Ha) was 5 (5=80-100%) throughout. The “percentage damage caused to the plant, IPOHE (five point scale)” value in assay [2] (250 g/Ha) and in assay [2] (1000 g/Ha) was 5 (5=80-100%) each time. Besides, the “percentage damage caused to the plant, SETFA (five point scale)” value in assay [3] (250 g/Ha) and in assay [3] (1000 g/Ha) was 5 (5=80-100%) each time. Further, the “percentage damage caused to the plant, AMARE (five point scale)” value in assay [4] (250 g/Ha) and in assay [4] (1000 g/Ha) was 5 (5=80-100%) each time. The “percentage damage caused to the plant, SOLNI (five point scale)” value in assay [5] (250 g/Ha) and in assay [5] (1000 g/Ha) was 5 (5=80-100%) each time. The “percentage damage caused to the plant, ECHCG (five point scale)” value in assay [6] (250 g/Ha) was 4 (4=60-79%); in assay [6] (1000 g/Ha), 5 (5=80-100%).

For `CC1(C)C(=O)C(c2c(Cl)ccc(Cl)c2OCc2ccccc2)C(=O)c2nccnc21` (stereo not drawn) [Compound 1.01, 7-(2-benzyloxy-3,6-dichloro-phenyl)-8-hydroxy-5,5-dimethyl-quinoxalin-6-one], the “percentage damage caused to the plant, LOLPE (five point scale)” value in assay [1] (250 g/Ha) and in assay [1] (1000 g/Ha) was 5 (5=80-100%) throughout. Besides, the “percentage damage caused to the plant, IPOHE (five point scale)” value in assay [2] (250 g/Ha) and in assay [2] (1000 g/Ha) was 5 (5=80-100%) throughout. In addition, the “percentage damage caused to the plant, SETFA (five point scale)” value in assay [3] (250 g/Ha) and in assay [3] (1000 g/Ha) was 5 (5=80-100%) in each case. Besides, the “percentage damage caused to the plant, AMARE (five point scale)” value in assay [4] (250 g/Ha) and in assay [4] (1000 g/Ha) was 5 (5=80-100%) throughout. The “percentage damage caused to the plant, SOLNI (five point scale)” value in assay [5] (250 g/Ha) and in assay [5] (1000 g/Ha) was 5 (5=80-100%) each time. The “percentage damage caused to the plant, ECHCG (five point scale)” value in assay [6] (250 g/Ha) and in assay [6] (1000 g/Ha) was 5 (5=80-100%) in each case.

For the compound `O=C1c2nccnc2CS(=O)(=O)C1c1c(Cl)ccc(Cl)c1OCc1ccccc1` (stereo not drawn) [Compound 1.13], the “percentage damage caused to the plant, LOLPE (five point scale)” value in assay [1] (250 g/Ha) and in assay [1] (1000 g/Ha) was 5 (5=80-100%) each time. The “percentage damage caused to the plant, IPOHE (five point scale)” value in assay [2] (250 g/Ha) and in assay [2] (1000 g/Ha) was 5 (5=80-100%) each time. Also, the “percentage damage caused to the plant, SETFA (five point scale)” value in assay [3] (250 g/Ha) and in assay [3] (1000 g/Ha) was 5 (5=80-100%) each time. The “percentage damage caused to the plant, AMARE (five point scale)” value in assay [4] (250 g/Ha) and in assay [4] (1000 g/Ha) was 5 (5=80-100%) in each case. Besides, the “percentage damage caused to the plant, SOLNI (five point scale)” value in assay [5] (250 g/Ha) and in assay [5] (1000 g/Ha) was 5 (5=80-100%) throughout. In addition, the “percentage damage caused to the plant, ECHCG (five point scale)” value in assay [6] (250 g/Ha) and in assay [6] (1000 g/Ha) was 5 (5=80-100%) each time.

The values are drawn from US10385063B2, “Herbicidal compounds” (Syngenta Participations AG, priority 2015, dated 2019).
